Values of other authors, collected in US20100143470A1, “CONTROLLED RELEASE PHARMACEUTICAL COMPOSITION CONTAINING THIAZIDES AND ANGIOTENSIN-II-RECEPTOR BLOCKERS” (HANALL PHARMACEUTICAL COMPANY, LTD, priority 2006, published 2010).

What was measured:
[1] = orally administered for hypertension therapy

| Compound | blood half-time (in vivo) | diuretic effect is sustained [1] | time to reach the highest blood concentration (after absorption from the small intestine) | blood elimination rate (in vivo) |
| --- | --- | --- | --- | --- |
| NS(=O)(=O)c1cc2c(cc1Cl)NCNS2(=O)=O [Hydrochlorothiazide, 6-chloro-3,4-dihydro-2H-1,2,4-benzothiadiazine-7-sulfonamide-1,1-dioxide] | 5.6 to 14.8 h | 6 to 12 h |  |  |
| CCCCc1nc(Cl)c(CO)n1Cc1ccc(-c2ccccc2-c2nn[nH]n2)cc1 [losartan] |  |  | ≤ 1 h | 600 mL/min |
